Here are results for 33 compounds from patent publication US8575158B2, “1-phenyl-substituted heterocyclyl derivatives and their use as prostaglandin D2 receptor modulators” (Actelion Pharmaceuticals Ltd., priority 2010, dated 2013).

The experiment concerns the target T1, hCRTH2 receptor (Homo sapiens, UniProt Q9Y5Y4).
T1 construct: expressed in transfected cells; host or cells: HEK293
T1 sequence (Q9Y5Y4 1-395): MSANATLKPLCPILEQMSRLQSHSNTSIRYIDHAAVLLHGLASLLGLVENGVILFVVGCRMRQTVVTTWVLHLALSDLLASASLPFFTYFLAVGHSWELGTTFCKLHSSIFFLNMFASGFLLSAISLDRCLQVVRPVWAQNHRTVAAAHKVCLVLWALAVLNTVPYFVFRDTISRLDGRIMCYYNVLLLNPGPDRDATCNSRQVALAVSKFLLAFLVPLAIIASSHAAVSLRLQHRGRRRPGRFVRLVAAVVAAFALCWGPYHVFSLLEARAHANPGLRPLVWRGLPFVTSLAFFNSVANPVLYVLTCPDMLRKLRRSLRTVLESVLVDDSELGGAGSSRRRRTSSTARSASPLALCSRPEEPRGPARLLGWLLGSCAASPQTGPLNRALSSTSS
The experiment in a line: Radioligand displacement assay (3H-PGD2) on hCRTH2 receptor membranes. Format: binding. The note with it: antagonistic activity; 3H-PGD2 displacement on HEK293-hCRTH2 membrane fragments.

SMILES strings stand for the structures.

The compound `Cn1cc(CC(=O)N2CCc3ccccc3C2c2cc(F)ccc2OCC(=O)O)c2ccccc21` (racemic) [Example 137, (±)-(4-Fluoro-2-{2-[2-(1-methyl-1H-indol-3-yl)-acetyl]-1,2,3,4-tetrahydro-isoquinolin-1-yl}-phenoxy)-acetic acid] came in with an IC50 of 0.314 µM. Consider `O=C(O)COc1ccc(F)cc1C1c2ccccc2CCN1C(=O)COc1ccccc1Cl` (racemic) [Example 138, (±)-(2-{2-[2-(2-Chloro-phenoxy)-acetyl]-1,2,3,4-tetrahydro-isoquinolin-1-yl}-4-fluoro-phenoxy)-acetic acid], for which the IC50 stood at 0.101 µM.

`O=C(O)COc1ccc(F)cc1C1c2ccccc2CCN1C(=O)CCc1ccccc1F` (racemic) [Example 139, (±)-(4-Fluoro-2-{2-[3-(2-fluoro-phenyl)-propionyl]-1,2,3,4-tetrahydro-isoquinolin-1-yl}-phenoxy)-acetic acid] showed an IC50 of 0.233 µM. Then `O=C(O)COc1ccc(F)cc1C1c2ccccc2CCN1C(=O)CC1Cc2ccccc2C1` (racemic) [Example 140, (±)-{4-Fluoro-2-[2-(2-indan-2-yl-acetyl)-1,2,3,4-tetrahydro-isoquinolin-1-yl]-phenoxy}-acetic acid], with 0.0364 µM.

`O=C(O)COc1ccc(F)cc1C1c2ccccc2CCN1C(=O)/C=C/c1ccccc1F` (racemic) [Example 141, (±)-(4-Fluoro-2-{2-[(E)-3-(2-fluoro-phenyl)-acryloyl]-1,2,3,4-tetrahydro-isoquinolin-1-yl}-phenoxy)-acetic acid] had an IC50 of 0.835 µM. Then `Cc1ccccc1/C=C/C(=O)N1CCc2ccccc2C1c1cc(F)ccc1OCC(=O)O` (racemic) [Example 142, (±)-{4-Fluoro-2-[2-((E)-3-o-tolyl-acryloyl)-1,2,3,4-tetrahydro-isoquinolin-1-yl]-phenoxy}-acetic acid], with 0.349 µM; and `O=C(O)COc1ccc(F)cc1C1c2ccccc2CCN1C(=O)CCCCc1ccccc1` (racemic) [Example 143, (±)-{4-Fluoro-2-[2-(5-phenyl-pentanoyl)-1,2,3,4-tetrahydro-isoquinolin-1-yl]-phenoxy}-acetic acid], with 0.395 µM; and `O=C(O)COc1ccc(F)cc1C1c2ccccc2CCN1C(=O)CCOc1ccccc1` (racemic) [Example 144, (±)-{4-Fluoro-2-[2-(3-phenoxy-propionyl)-1,2,3,4-tetrahydro-isoquinolin-1-yl]-phenoxy}-acetic acid], with 0.0739 µM. In the case of `CS(=O)(=O)c1ccc(CCC(=O)N2CCc3ccccc3C2c2cc(F)ccc2OCC(=O)O)cc1` (racemic) [Example 145, (±)-(4-Fluoro-2-{2-[3-(4-methanesulfonyl-phenyl)-propionyl]-1,2,3,4-tetrahydro-isoquinolin-1-yl}-phenoxy)-acetic acid], the IC50 was determined as 0.983 µM.

For `O=C(O)COc1ccc(F)cc1C1c2ccccc2CCN1C(=O)CCN1CCc2ccccc21` (racemic) [Example 146, (±)-{2-[2-(3-2,3-Dihydro-indol-1-yl-propionyl)-1,2,3,4-tetrahydro-isoquinolin-1-yl]-4-fluoro-phenoxy}-acetic acid], the concentration for half-maximal inhibition (IC50) was 0.0613 µM. The compound `Cc1ccccc1OCCC(=O)N1CCc2ccccc2C1c1cc(F)ccc1OCC(=O)O` (racemic) [Example 147, (±)-{4-Fluoro-2-[2-(3-o-tolyloxy-propionyl)-1,2,3,4-tetrahydro-isoquinolin-1-yl]-phenoxy}-acetic acid] had an IC50 of 0.0576 µM. `O=C(O)COc1ccc(F)cc1C1c2ccccc2CCN1C(=O)COc1ccccc1F` (racemic) [Example 148, (±)-(4-Fluoro-2-{2-[2-(2-fluoro-phenoxy)-acetyl]-1,2,3,4-tetrahydro-isoquinolin-1-yl}-phenoxy)-acetic acid] had an IC50 of 0.132 µM. The same measure for `COc1ccccc1CCCC(=O)N1CCc2ccccc2C1c1cc(F)ccc1OCC(=O)O` (racemic) [Example 149, (±)-(4-Fluoro-2-{2-[4-(2-methoxy-phenyl)-butyryl]-1,2,3,4-tetrahydro-isoquinolin-1-yl}-phenoxy)-acetic acid]: 0.0427 µM; for `O=C(O)COc1ccc(F)cc1C1c2ccccc2CCN1C(=O)COCc1ccccc1Cl` (racemic) [Example 150]: 0.00616 µM; for `O=C(O)COc1ccc(Cl)cc1C1c2ccccc2CCN1C(=O)[C@@H]1C[C@H]1c1ccc(Cl)cc1` (mixture of isomers) [Example 157]: 0.0453 µM. The same measure for `O=C(O)COc1ccc(Cl)cc1C1c2ccccc2CCN1C(=O)[C@@H]1C[C@H]1c1ccc(Cl)cc1Cl` (mixture of isomers) [Example 158]: 0.0376 µM.

The compound `COc1ccccc1[C@@H]1C[C@H]1C(=O)N1CCc2ccccc2C1c1cc(Cl)ccc1OCC(=O)O` (mixture of isomers) [Example 159] yielded an IC50 of 0.0212 µM. The same measure for `O=C(O)COc1ccc(Cl)cc1C1c2ccccc2CCN1C(=O)[C@@H]1C[C@H]1c1ccccc1F` (mixture of isomers) [Example 160]: 0.0164 µM; for `O=C(O)COc1ccc(Cl)cc1C1c2ccccc2CCN1C(=O)CCc1cnnn1-c1ccccc1` (racemic) [Example 161]: 0.116 µM; for `O=C(O)COc1ccc(Cl)cc1C1c2ccccc2CCN1C(=O)CSc1cnnn1-c1ccccc1` (racemic) [Example 162]: 0.115 µM.

In turn, `O=C(O)COc1ccc(F)cc1C1c2ccc(F)cc2CCN1C(=O)OCc1ccccc1` (racemic) [Example 163] showed an IC50 of 0.00421 µM. As to `O=C(O)COc1ccc(Cl)cc1C1c2ccccc2CCN1C(=O)OCc1ccccc1Cl` (racemic) [Example 164], the IC50 was 0.00094 µM.

`O=C(O)COc1ccc(F)cc1C1c2ccccc2CCN1C(=O)OCc1ccccc1Cl` (racemic) [Example 165] registered an IC50 of 0.005 µM. In the case of `CC(C)(C)COC(=O)N1CCc2ccccc2C1c1cc(F)ccc1OCC(=O)O` (racemic) [Example 166], the IC50 turned out to be 0.12 µM. Regarding `CCCCOC(=O)N1CCc2ccccc2C1c1cc(F)ccc1OCC(=O)O` (racemic) [Example 167], the IC50 is 0.042 µM. The same measure for `COc1ccccc1OC(=O)N1CCc2ccccc2C1c1cc(F)ccc1OCC(=O)O` (racemic) [Example 168]: 0.109 µM. The same measure for `O=C(O)COc1ccc(F)cc1C1c2ccccc2CCN1C(=O)Oc1ccccc1` (racemic) [Example 169]: 0.451 µM; for `O=C(O)COc1ccc(F)cc1C1c2ccccc2CCN1C(=O)Oc1ccccc1Cl` (racemic) [Example 170]: 0.169 µM; for `CC(C)COC(=O)N1CCc2ccccc2C1c1cc(F)ccc1OCC(=O)O` (racemic) [Example 171]: 0.0477 µM. As for `COCCOC(=O)N1CCc2ccccc2C1c1cc(F)ccc1OCC(=O)O` (racemic) [Example 172], the IC50 turned out to be 0.0598 µM.

For `COc1ccc(OC(=O)N2CCc3ccccc3C2c2cc(F)ccc2OCC(=O)O)cc1` (racemic) [Example 173], the IC50 was determined as 0.102 µM. In turn, `O=C(O)COc1ccc(Cl)cc1C1c2cccc(F)c2CCN1C(=O)OCc1ccccc1Cl` (racemic) [Example 175] yielded an IC50 of 0.00875 µM.

As to `O=C(O)COc1ccc(Cl)cc1C1c2ccccc2CCN1C(=O)OCCc1ccccc1Cl` (racemic) [Example 176, (±)-1-(2-Carboxymethoxy-5-chloro-phenyl)-3,4-dihydro-1H-isoquinoline-2-carboxylic acid 2-(2-chloro-phenyl)-ethyl ester], the IC50 was found to be 0.0104 µM.
